Measured values from US10351883B2, “Compounds for increasing lipid synthesis and storage” (NUtech Ventures, priority 2015, dated 2019).
Where two headings read alike, the source gives them in different places.

Columns and labels:
Format in all cases: cell-based
[1] = system: Chlorella vulgaris UTEX 395; assay: Lipid accumulation in algal cells; details: 0.63 μM to 50 μM, FIG. 11A-11C
Procedure: (§1) Compounds 1, 62, and 136 were assayed in algal species Chlamydomonas reinhardtii CC125, Chlorella sorokiniana UTEX 1230, Chlorella vulgaris UTEX 395, and Tetrachlorella alterns UTEX 2453 at concentrations ranging from 0.63 μM to 50 μM.

[2] = system: Chlamydomonas reinhardtii CC125; assay: Lipid accumulation in algal cells; details: 0.63 μM to 50 μM, FIG. 11A-11C
Procedure: as §1

[3] = system: Tetrachlorella alterns UTEX 2453; assay: Lipid accumulation in algal cells; details: 0.63 μM to 50 μM, FIG. 11A-11C
Procedure: as §1

[4] = system: Chlorella sorokiniana UTEX 1230; assay: Lipid accumulation in algal cells; details: 0.63 μM to 50 μM, FIG. 11A-11C
Procedure: as §1

[5] = system: Chlamydomonas reinhardtii cells; assay: Levels of proteins required for photosynthesis; details: Rubisco large and small sub unit, PSa D, PSb A, phosphoribulokinase, histone; FIG. 8
[6] = system: Chlamydomonas reinhardtii cells; assay: Fatty acid assay; details: 30 μM, FIG. 5
[7] = system: Chlamydomonas reinhardtii cells; assay: Triglyceride assay; details: 5 μM, FIG. 6
[8] = system: Chlamydomonas reinhardtii cells; assay: Total protein levels in cells; details: FIG. 10
[9] = system: Chlamydomonas reinhardtii cells; assay: Cellular chlorophyll and carotenoid levels; details: 30 μM, FIG. 7
[10] = system: Chlamydomonas reinhardtii cells; assay: Microscopy of treated cells (organelles, lipid droplets); details: FIG. 1
Procedure: (§2) The screening library included 43,736 compounds (ChemBridge, Corp). […] A sub-set of compounds were retested using an 8-point dose response assay (0.25-30 μM). Compounds were further assessed visually using a Nikon Ti-inverted microscope (60×) to reconfirm lipid droplet accumulation was induced.

[11] = system: Chlamydomonas reinhardtii cells; assay: Cellular carbohydrate levels; details: 30 μM, FIG. 9
[12] = system: Chlamydomonas reinhardtii cells; assay: Lipid accumulation using lipophilic dye Nile Red; details: for lipid accumulation: 0.5 μM to 15.0 μM, FIG. 3; for lipid accumulation over 72 hours: 30 μM test compound, FIG. 4
Procedure: […] At the indicated times 200 μL cells were removed from each well and optical density and nile red fluorescence were measured.
Lipid accumulation over a period of 72 hours was also measured (30 μM test compound) using lipophilic dye Nile Red, as shown in FIG. 4. […] FIGS. 12A-12C show representative images of C. reinhardtii cultures that were treated with 10 μM of representative test compounds of Formula Ia, Formula IIa, and Formula IIIa. The corresponding lipid accumulation was visualized using confocal microscopy after 72 hours in culture.

[13] = system: Chlamydomonas reinhardtii; assay: 8-point dose response assay (0.25-30 μM); set-up: reference not given here; details: for Dose Response Assay 0.25 μM: 0.25 μM compound; for Dose Response Assay 0.625 μM: 0.625 μM compound; for Dose Response Assay 2.5 μM: 2.5 μM compound; for Dose Response Assay 5 μM: 5 μM compound; for Dose Response Assay 10 μM: 10 μM compound; for Dose Response Assay 15 μM: 15 μM compound; for Dose Response Assay 30 μM: 30 μM compound
Procedure: A large scale in vivo high throughput screen (HTS) was performed to identify small compounds that stimulate lipid production and accumulation using the model organism Chlamydomonas reinhardtii. The HTS employed a 384-well microplate format in which cells were allowed to grow in the presence of the test compounds at 10 μM final concentration for 72 hours.
as §2

[14] = 8-point dose response, Nile Red lipid accumulation
[15] = 1.25 μM compound, 8-point dose response, Nile Red lipid accumulation

Row | SMILES | Dose Response Assay 0.25 μM [13, 14] | Dose Response Assay 0.625 μM [13, 14] | Dose Response Assay 1.25 μM [13, 15] | Dose Response Assay 2.5 μM [13, 14] | Dose Response Assay 5 μM [13, 14] | Dose Response Assay 10 μM [13, 14] | Dose Response Assay 15 μM [13, 14] | Dose Response Assay 30 μM [13, 14] | also measured
1 | COc1ccccc1N1CCN(Cc2ccc(O)cc2)CC1 [Compound 62, 4-((4-(2-methoxyphenyl)piperazin-1-yl)methyl)phenol] |  |  |  |  |  |  |  |  | lipid accumulation [1]: stimulated lipid accumulation; lipid accumulation [2]: stimulated lipid accumulation; lipid accumulation [3]: stimulated lipid accumulation; lipid accumulation [4]: stimulated lipid accumulation; levels of proteins required for photosynthesis [5]: minor effects; fatty acid levels [6]: increased fatty acid levels; triacylglyercol levels [7]: increased triacylglyercol levels; total protein levels [8]: None of the test compounds significantly affected; carotenoid levels [9]: did not significantly alter; levels of chlorophyll A (Chl A) [9]: did not significantly alter; levels of chlorophyll B (Chl B) [9]: did not significantly alter; disruption of major organelles including nucleus, endoplasmic reticulum, and chloroplast [10]: does not disrupt major organelles; carbohydrate levels [11]: increased carbohydrate levels; lipid accumulation [12]: increased lipid accumulation; lipid accumulation over 72 hours [12]: increased lipid accumulation
2 | COc1ccc(CCN(C)Cc2ccc([N+](=O)[O-])cc2)cc1OC [Compound 1, 2-(3,4-dimethoxyphenyl)-N-methyl-N-(4-nitrobenzyl)ethan-1-amine] |  |  |  |  |  |  |  |  | lipid accumulation [1]: stimulated lipid accumulation; lipid accumulation [2]: stimulated lipid accumulation; lipid accumulation [3]: stimulated lipid accumulation; lipid accumulation [4]: stimulated lipid accumulation; levels of proteins required for photosynthesis [5]: did not significantly affect; fatty acid levels [6]: increased fatty acid levels; triacylglyercol levels [7]: increased triacylglyercol levels; total protein levels [8]: None of the test compounds significantly affected; carotenoid levels [9]: did not significantly alter; levels of chlorophyll A (Chl A) [9]: did not significantly alter; levels of chlorophyll B (Chl B) [9]: did not significantly alter; disruption of major organelles including nucleus, endoplasmic reticulum, and chloroplast [10]: does not disrupt major organelles; carbohydrate levels [11]: increased carbohydrate levels; lipid accumulation [12]: increased lipid accumulation; lipid accumulation over 72 hours [12]: increased lipid accumulation
3 | CN(CCC#N)C12CC3CC(CC(C3)C1)C2 [Compound 136, 3-(adamantan-1-yl(methyl)amino)propanenitrile] |  |  |  |  |  |  |  |  | lipid accumulation [1]: stimulated lipid accumulation; lipid accumulation [2]: stimulated lipid accumulation; lipid accumulation [3]: stimulated lipid accumulation; lipid accumulation [4]: stimulated lipid accumulation; levels of proteins required for photosynthesis [5]: did not significantly affect; fatty acid levels [6]: increased fatty acid levels; triacylglyercol levels [7]: increased triacylglyercol levels; total protein levels [8]: None of the test compounds significantly affected; carotenoid levels [9]: did not significantly alter; levels of chlorophyll A (Chl A) [9]: did not significantly alter; levels of chlorophyll B (Chl B) [9]: did not significantly alter; disruption of major organelles including nucleus, endoplasmic reticulum, and chloroplast [10]: does not disrupt major organelles; carbohydrate levels [11]: increased carbohydrate levels; lipid accumulation [12]: increased lipid accumulation; lipid accumulation over 72 hours [12]: increased lipid accumulation
4 | Cc1c(NC(=O)COc2ccc(Br)cc2)cccc1[N+](=O)[O-] [Compound 47] | 0.90 | 0.81 | 0.91 | 1.3 | 0.95 | 1.37 | 1.27 | 1.19 | 
5 | COc1cc(CN2CCN(Cc3ccccc3)CC2)cc(OC)c1 [Compound 99] | 0.98 | 0.84 |  | 1.4 | 1.96 | 2.96 | 3.37 | 4.22 | Dose Response Assay 1.25 μM [13]: 0.97
6 | CCOc1c(Cl)cc(C(=O)Nc2cccc([N+](=O)[O-])c2)cc1Cl [Compound 61] | 0.90 | 0.96 | 0.92 | 0.95 | 1.04 | 0.91 | 1.24 | 1.14 | 
7 | Cc1ccsc1C=C(C#N)c1nc(-c2ccc([N+](=O)[O-])cc2)cs1 [Compound 30] | 1.15 | 1.05 | 1.16 | 0.84 | 0.99 | 0.82 | 1.37 | 1.73 | 
8 | Cl.Oc1ccccc1CNCCC12CC3CC(CC(C3)C1)C2 [Compound 148] | 0.94 | 1.04 | 0.88 | 1.32 | 1.63 | 1.39 | 1.65 | 1.45 | 
9 | Cc1ccc(C(=O)Nc2ccccc2C(=O)NC(C)C)cc1[N+](=O)[O-] [Compound 54] | 1.05 | 1.53 | 2.13 | 2.32 | 2.79 | 1.73 | 1.78 | 1.58 | 
10 | O=[N+]([O-])c1ccccc1CN1CCN(CC2CC3C=CC2C3)CC1 (stereo not drawn) [Compound 124] |  |  |  |  |  | 0.88 |  |  | Dose Response Assay 1.25 μM [13]: 0.99
11 | CCC1CCCCN1C(=O)c1ccc(Cl)cc1[N+](=O)[O-] (stereo not drawn) [Compound 57] | 0.99 | 1.06 | 1.01 | 0.90 | 1.28 | 1.11 | 1.15 | 1.87 | 
12 | Cc1c(C(=O)Nc2ccc(F)c(F)c2)cccc1[N+](=O)[O-] [Compound 17] | 1.09 | 1.03 | 0.89 | 0.89 | 1.07 | 0.92 | 1.04 | 1.67 | 
13 | O=C(Nc1ccc([N+](=O)[O-])cc1)c1c(F)c(F)c(F)c(F)c1F [Compound 56] | 1.2 | 1.2 | 1.34 | 1.8 | 2.58 | 2.71 | 1.74 | 1.92 | 
14 | Cc1cc(C)c(NC(=O)COc2ccccc2[N+](=O)[O-])c(C)c1 [Compound 35] | 1.09 | 1.49 | 1.23 | 1.96 | 1.91 | 2.65 | 2.5 | 2.51 | 
15 | Cc1cccc(N2CCN(Cc3ccc([N+](=O)[O-])cc3)CC2)c1C [Compound 5] | 0.97 | 0.85 | 0.80 | 0.91 | 1.28 | 2.07 | 1.96 | 2.81 | 
